Values quoted from earlier work in patent US20230413809A1, “DISINFECTANT COMPOSITION FOR SURFACES AND THE PREPARATION THEREOF” (Onyx Lotus, LLC, priority 2020, published 2023).

Conditions: general statement on surfactant detergency, no test described

Row | SMILES | Critical micellar concentration (CMC) [mM]
1 | CCCCCCCCCCCCCCCC[N+](C)(C)C.[Br-] [CTAB, cetyltrimethylammonium bromide] | 0.92
2 | O=C([O-])CC(C(=O)[O-])S(=O)(=O)O.[Na+].[Na+] (centres unmarked) [sodium sulfosuccinate] | 0.6
